Measurements published in patent US10723711B2, “1,1,1-trifluoro-3-hydroxypropan-2-yl carbamate derivatives and 1,1,1-trifluoro-4-hydroxybutan-2-yl carbamate derivatives as MAGL inhibitors” (PFIZER INC., priority 2015, dated 2020).
pIC50: −log10 of the molar value. Where a name gives a salt, the structure may show the parent alone. Read-outs that look alike come from different tables or passages of the source.

Experiments:
[1] = molecular target: T1, human recombinant Monoacylglycerol Lipase (Homo sapiens, UniProt Q99685); experiment: MAGL inactivation, enzyme progress curves, kinact/KI; assay type: biochemical; conditions: from enzyme progress curves, T = 0 min protocol; geometric mean of 2-4 determinations unless otherwise indicated
T1 sequence (Q99685 1-303): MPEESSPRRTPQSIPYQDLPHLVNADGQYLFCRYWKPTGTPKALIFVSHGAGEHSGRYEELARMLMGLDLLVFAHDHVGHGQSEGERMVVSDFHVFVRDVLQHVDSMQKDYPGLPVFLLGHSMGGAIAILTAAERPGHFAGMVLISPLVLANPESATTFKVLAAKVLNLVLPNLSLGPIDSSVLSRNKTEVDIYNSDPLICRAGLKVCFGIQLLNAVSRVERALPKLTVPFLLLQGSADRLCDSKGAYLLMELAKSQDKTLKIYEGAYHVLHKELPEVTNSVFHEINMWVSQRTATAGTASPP
Experimental: Assessment of MAGL inhibition utilizes human recombinant Monoacylglycerol Lipase and the fluorogenic substrate 7-hydroxycoumarinyl arachidonate (7-HCA, Biomol ST-502). 400 nL of a test compound at decreasing concentration (ranging from 150 μM down to 1.5 nM) was spotted into a 384-well back plate (PerkinElmer, 6007279) using a Labcyte Echo, followed by addition of 10 μL of MAGL enzyme in assay buffer (50 mM HEPES, pH 7.4, 100 mM NaCl, 5 mM MgCl2, 0.1% Triton X-100 and 25% glycerin). An equal volume of 7-HCA in assay buffer with 10% DMSO was added either immediately (T=0 min) or after a 30 minute incubation (T=30 min) to initiate the reaction. The final concentration of MAGL enzyme was […] and 7-HCA substrate was 5 μM. After these dilutions, the final concentration of the test compound ranged from 3 μM to 0.03 nM. The reaction was allowed to progress for 60 minutes, after which the plate was read at an Ex/Em of 340/465. Percent inhibitions were calculated based on control wells containing no compound (0% inhibition) and a control compound (e.g., a MAGL inhibitor whose activity is known or was previously reported in the literature, such as one with about 100% inhibition). IC50 values were generated based on a four parameter fit model using ABASE software from IDBS. See e.g., Wang, Y. et al., “A Fluorescence-Based Assay for Monoacylglycerol Lipase Compatible with Inhibitor Screening,” Assay and Drug Development Technologies, 2008, Vol. 6 (3) pp 387-393 (reporting an assay for measuring MAGL activity).
To measure MAGL inactivation, the same protocol for the (T=0 min) MAGL inhibition IC50 assay was performed with data collected every minute to acquire enzyme progress curves at decreasing concentrations of compound.

[2] = molecular target: T1, human recombinant Monoacylglycerol Lipase; experiment: MAGL inhibition enzymatic assay, fluorogenic substrate 7-HCA, IC50 at T=0 min or after 30 minute incubation (T=30 min); assay type: biochemical; conditions: geometric mean of 2-4 determinations unless otherwise indicated
Experimental: An equal volume of 7-HCA in assay buffer with 10% DMSO was added either immediately (T=0 min) or after a 30 minute incubation (T=30 min) to initiate the reaction. […] After these dilutions, the final concentration of the test compound ranged from 3 μM to 0.03 nM. […] IC50 values were generated based on a four parameter fit model using ABASE software from IDBS.

[3] = T = 0 min (substrate added immediately), read-out: MAGL (T = 0 min) IC50
[4] = T = 30 min (30 minute incubation), read-out: MAGL (T = 30 min) IC50

Structure (SMILES)	MAGL kinact/KI [1]	pIC50 [2, 3]	pIC50 [2, 4]
COP(=O)(OC)OC[C@@H](OC(=O)N1CCC2(CC1)CN(S(=O)(=O)c1ccc(F)cc1)CCO2)C(F)(F)F [Example 86]	132 1/s per M	7.01	8.10
C[N+](C)(C)CCOP(=O)([O-])OC[C@@H](OC(=O)N1CCC2(CC1)CN(S(=O)(=O)c1ccc(F)cc1)CCO2)C(F)(F)F [Example 90]		< 5.52	< 5.52
CN([C@H]1COC2(CCN(C(=O)O[C@H](COP(=O)(O)O)C(F)(F)F)CC2)C1)S(=O)(=O)c1ccccc1 [Example 30, (2R)-3,3,3-Trifluoro-2-[({(3R)-3-[methyl(phenylsulfonyl)amino]-1-oxa-8-azaspiro[4.5]dec-8-yl}carbonyl)oxy]propyl phosphate, disodium salt]		< 5.52	6.26
O=C(O[C@H](CO)C(F)(F)F)N1CCN(Cc2ccc(F)cc2)CC1 [Example 25, (2R)-1,1,1-trifluoro-3-hydroxypropan-2-yl 4-(4-fluorobenzyl)piperazine-1-carboxylate]		6.10	7.15
Cc1cnc(N2CCOC3(CCN(C(=O)O[C@H](CO)C(F)(F)F)CC3)C2)nc1 [Example 76]		6.18	7.08
O=C(O[C@H](CO)C(F)(F)F)N1CCC2(CC1)CN(S(=O)(=O)C1CCOCC1)CCO2 [Example 49]		< 5.52	6.18
O=C(O[C@H](CO)C(F)(F)F)N1C[C@@H]2CN(c3cc(C4CC4)ccn3)C[C@@H]2C1 [Example 48]		< 5.52	6.03
O=C(O[C@H](CO)C(F)(F)F)N1CCC2(CC1)CN(S(=O)(=O)N1CCOCC1)CCO2 [Example 22, (2R)-1,1,1-Trifluoro-3-hydroxypropan-2-yl 4-(morpholin-4-ylsulfonyl)-1-oxa-4,9-diazaspiro[5.5]undecane-9-carboxylate]		5.58	6.72
CN(CC1(O)CCN(C(=O)O[C@H](CO)C(F)(F)F)CC1)S(=O)(=O)c1ccccc1 [Example 24, (2R)-1,1,1-Trifluoro-3-hydroxypropan-2-yl 4-hydroxy-4-{[methyl(phenylsulfonyl)amino]methyl}piperidine-1-carboxylate]		5.72	6.71
CN(C1COC2(CCN(C(=O)O[C@H](CO)C(F)(F)F)CC2)C1)S(=O)(=O)C1CCOCC1 (single isomer, unassigned) [Example 116]		6.01	7.08
CN(C)CCOP(=O)(O)OC[C@@H](OC(=O)N1CCC2(CC1)CN(S(=O)(=O)c1ccc(F)cc1)CCO2)C(F)(F)F (mixture of isomers) [Example 89]		< 5.52	< 5.52
O=C(O[C@H](CO)C(F)(F)F)N1C2CCC1CN(Cc1ccc(F)cc1)C2 [Example 23, (2R)-1,1,1-Trifluoro-3-hydroxypropan-2-yl 3-(4-fluorobenzyl)-3,8-diazabicyclo[3.2.1]octane-8-carboxylate]		< 5.82	7.11
O=C(O[C@H](CO)C(F)(F)F)N1CCC(O)(CNS(=O)(=O)c2ccccc2)CC1 [Example 16, (2R)-1,1,1-Trifluoro-3-hydroxypropan-2-yl 4-hydroxy-4-{[(phenylsulfonyl)amino]methyl}piperidine-1-carboxylate]		5.74	6.79
O=C(O[C@H](CO)C(F)(F)F)N1CCC2(CC1)CN(S(=O)(=O)CCCn1ccnc1)CCO2 [Example 56]		5.63	6.78
O=C(O[C@H](CO)C(F)(F)F)N1CCC(Oc2ccc(CO)cn2)CC1 [Example 75]		6.16	7.10
O=C(O[C@H](CO)C(F)(F)F)N1CCC2(CC1)CN(Cc1ccc(F)cc1)S(=O)(=O)CO2 [Example 28, (2R)-1,1,1-Trifluoro-3-hydroxypropan-2-yl 4-(4-fluorobenzyl)-1-oxa-3-thia-4,9-diazaspiro[5.5]undecane-9-carboxylate 3,3-dioxide]		6.16	7.07

Now from value to compound:

MAGL kinact/KI [1]	pIC50 [2, 3]	pIC50 [2, 4]	Structure (SMILES)
7304 1/s per M	7.28	8.30	Cc1cnc(OC2CCN(C(=O)O[C@H](CO)C(F)(F)F)CC2)c(C)c1 [Example 61]
30591 1/s per M	7.54	8.40	O=C(O[C@H](CO)C(F)(F)F)N1CCC2(CC1)CN(S(=O)(=O)NCc1ccccc1)CCO2 [Example 67]
59048 1/s per M	7.82	9.00	Cc1ccc(S(=O)(=O)N2CCOC3(CCN(C(=O)O[C@H](CO)C(F)(F)F)CC3)C2)cc1Cl [Example 59]
85270 1/s per M	6.96	7.62	O=C(O[C@H](CO)C(F)(F)F)N1CCC2(CC1)CN(S(=O)(=O)c1ccc(F)cc1)C(O)CO2 (mixture of isomers) [Example 29, (2R)-1,1,1-Trifluoro-3-hydroxypropan-2-yl 4-[(4-fluorophenyl)sulfonyl]-3-hydroxy-1-oxa-4,9-diazaspiro[5.5]undecane-9-carboxylate]
5489 1/s per M	6.78	7.72	O=C(O[C@H](CO)C(F)(F)F)N1CCC2(CC1)CN(CC1CCCOC1)CCO2 (single isomer, unassigned) [Example 4]
	6.60	7.48	Cc1cnc(OC2CCN(C(=O)O[C@H](CO)C(F)(F)F)CC2)nc1-c1ccnn1C [Example 58]
	6.25	7.34	O=C(O[C@H](CO)C(F)(F)F)N1CCC(O)(CN(Cc2ccc(F)cc2)C2CCOCC2)CC1 [Example 46]
	6.41	7.28	O=C(O[C@H](CO)C(F)(F)F)N1CCC2(CC1)CN(S(=O)(=O)NCc1ccccn1)CCO2 [Example 74]
	6.44	7.52	Cn1nccc1-c1cccc(OC2CCN(C(=O)O[C@H](CO)C(F)(F)F)CC2)n1 [Example 65]
	6.32	7.37	O=C(O[C@H](CO)C(F)(F)F)N1CCC2(CC1)CC(Nc1ccccn1)CO2 (stereo partly drawn) [Example 27, (2R)-1,1,1-Trifluoro-3-hydroxypropan-2-yl 3-(pyridin-2-ylamino)-1-oxa-8-azaspiro[4.5]decane-8-carboxylate]
	6.26	7.38	Cn1nccc1-c1ccnc(OC2CCN(C(=O)O[C@H](CO)C(F)(F)F)CC2)c1 [Example 64]
	6.27	7.32	CN(C(=O)c1ccccn1)[C@H]1COC2(CCN(C(=O)O[C@H](CO)C(F)(F)F)CC2)C1 [Example 146]
	6.31	7.35	O=C(O[C@H](CO)C(F)(F)F)N1CCC2(CC1)CN(c1ccc(F)cn1)CCO2 [Example 14, (2R)-1,1,1-Trifluoro-3-hydroxypropan-2-yl 4-(5-fluoropyridin-2-yl)-1-oxa-4,9-diazaspiro[5.5]undecane-9-carboxylate]
	6.18	7.16	CC1N(S(=O)(=O)c2ccc(F)cc2)CCOC12CCN(C(=O)O[C@H](CO)C(F)(F)F)CC2 (single isomer, unassigned) [Example 70]
	6.47	7.49	O=C(OC(CO)C(F)(F)F)N1CCC(c2ccnc(N3CCOCC3)n2)CC1 (centres unmarked) [Example 35]
	6.35	7.37	O=C(O[C@H](CO)C(F)(F)F)N1CCC2(CC1)CN(S(=O)(=O)CCc1ccccn1)CCO2 [Example 55]
	6.31	7.30	O=C(O[C@H](CO)C(F)(F)F)N1C[C@@H]2CN(S(=O)(=O)c3ccc(F)cc3)C[C@@H]2C1 [Example 40]
	6.22	7.28	O=C(OC(C(F)(F)F)C(F)(F)CO)N1CCC2(CC1)CN(S(=O)(=O)c1ccc(F)cc1)CCO2 (single isomer, unassigned; ent-2) [Example 21, 1,1,1,3,3-Pentafluoro-4-hydroxybutan-2-yl 4-[(4-fluorophenyl)sulfonyl]-1-oxa-4,9-diazaspiro[5.5]undecane-9-carboxylate, ENT-2]
